In brackets after ≈: the same amount, converted by molar mass.
Columns and labels:
L1210 [1] = experiment: In vitro inhibitory activity against growth of murine L1210 cells at 100 ug/mL concentration; assay type: functional; conditions: Mus musculus
L1210 [2] = experiment: (§1) In vitro inhibitory activity against growth of murine L1210 cells.; assay type: functional, cell-based; conditions: Mus musculus
L1210 [3] = experiment: as §1; assay type: functional, Mus musculus
OST = experiment: In vitro inhibitory activity against growth of Human osteosarcoma (OST) cells; assay type: functional, cell-based
PC-3 = experiment: In vitro inhibitory activity against growth of Human lung adenocarcinoma (PC-3) cells.; assay type: functional, cell-based
PC-13 = experiment: In vitro inhibitory activity against growth of Human large-cell carcinoma (PC-13) cells; assay type: functional, cell-based
Lu-65 = experiment: In vitro inhibitory activity against growth of Human gaint cell carcinoma (Lu-65) cells; assay type: functional, cell-based
T-24 = experiment: In vitro inhibitory activity against growth of Human bladder transitional-cell carcinoma (T-24) cells; assay type: functional, cell-based
KB = experiment: In vitro inhibitory activity against growth of Human oral epidermoid carcinoma (KB) cells; assay type: functional, cell-based
SW480 = experiment: In vitro inhibitory activity against growth of Human colon adenocarcinoma (SW-480) cells; assay type: functional, cell-based
HT-1080 = experiment: In vitro inhibitory activity against growth of Human fibrosarcoma (HT1080) cells; assay type: functional, cell-based
PC-6 = experiment: In vitro inhibitory activity against growth of Human lung small-cell carcinoma (PC-6) cells; assay type: functional, cell-based
HOS = experiment: In vitro inhibitory activity against growth of Human osteogenic sarcoma (HOS) cells; assay type: functional, cell-based
COLO 205 = experiment: In vitro inhibitory activity against growth of Human colon adenocarcinoma (COLO 205) cells.; assay type: functional, cell-based
K562 = experiment: In vitro inhibitory activity against growth of Human chronic myelogenous leukemia (K562 cells; assay type: functional, cell-based
QG-90 = experiment: In vitro inhibitory activity against growth of Human lung small cell carcinoma (QG-90) cells; assay type: functional, cell-based
PANC-1 = experiment: In vitro inhibitory activity against growth of Human pancreas epitheloid carcinoma (PANC-1) cells; assay type: functional, cell-based
KU-2 cell line = experiment: In vitro inhibitory activity against growth of Human renal-cell carcinoma (KU-2) cells; assay type: functional, cell-based
Calu-1 = experiment: In vitro inhibitory activity against growth of Human epidermoid carcinoma (Calu-1) cells; assay type: functional, cell-based
SAOS-2 = experiment: In vitro inhibitory activity against growth of Human osteogenic sarcoma (Saos-2) cells; assay type: functional, cell-based
HL-60 = experiment: In vitro inhibitory activity against growth of Human promyelocytic leukemia (HL-60) cells; assay type: functional, cell-based
G-292 = experiment: In vitro inhibitory activity against growth of Human osteogenic sarcoma (G-292) cells; assay type: functional, cell-based; conditions: G292
U-937 = experiment: In vitro inhibitory activity against growth of Human histocytic lymphoma (U937) cells; assay type: functional, cell-based
PC-8 = experiment: In vitro inhibitory activity against growth of Human lung adenocarcinoma (PC-8) cells; assay type: functional, cell-based
CCRF-CEM = experiment: In vitro inhibitory activity against growth of Human acute lymphocytic leukemia (CCRF-CEM) cells; assay type: functional, cell-based
HT-1376 = experiment: In vitro inhibitory activity against growth of Human bladder carcinoma (HT1376) cells; assay type: functional, cell-based
RPMI-8226 = experiment: In vitro inhibitory activity against growth of Human myeloma (RPMI 8226) cells; assay type: functional, cell-based
QG-56 = experiment: In vitro inhibitory activity against growth of Human lung squamous-cell carcinoma (QG-56) cells; assay type: functional, cell-based

Structure (SMILES): NC(=O)c1ncn(C2O[C@H](CO)[C@@H](O)[C@H]2O)c1C#CCC1CCCC1 (some centres not stated)
- inhibition at 100 µg/mL (L1210 [1]): -10.7%

Structure (SMILES): C#Cc1c(C#N)ncn1C1O[C@H](CO)[C@@H](O)[C@H]1O (some centres not stated)
- IC50 (L1210 [2]): 1.9 µg/mL (≈ 7.62 µM)

Structure (SMILES): NC(=O)c1ncn(C2O[C@H](CO)[C@@H](O)[C@H]2O)c1C#CCCc1ccccc1 (some centres not stated)
- inhibition at 100 µg/mL (L1210 [1]): 8.5%

Structure (SMILES): NC(=O)c1ncn(C2O[C@H](CO)[C@@H](O)[C@H]2O)c1C#Cc1ccccc1 (some centres not stated)
- IC50 (L1210 [2]): 20.6 µg/mL (≈ 60 µM)

Structure (SMILES): CC(C)(O)C#Cc1c(C(N)=O)ncn1C1O[C@H](CO)[C@@H](O)[C@H]1O (some centres not stated)
- IC50 (L1210 [2]): 4.8 µg/mL (≈ 14.8 µM)

Structure (SMILES): N#CCCCC#Cc1c(C(N)=O)ncn1C1O[C@H](CO)[C@@H](O)[C@H]1O (some centres not stated)
- Inhibition (L1210 [3]): 3.6%

Structure (SMILES): N#Cc1ncn(C2O[C@H](CO)[C@@H](O)[C@H]2O)c1C#Cc1ccccc1 (some centres not stated)
- IC50 (L1210 [2]): 80.3 µg/mL (≈ 247 µM)

Structure (SMILES): NC(=O)c1ncn(C2O[C@H](CO)[C@@H](O)[C@H]2O)c1C#CCO (some centres not stated)
- IC50 (OST): > 100 µg/mL
- IC50 (PC-3): 54 µg/mL (≈ 182 µM)
- IC50 (PC-13): 44 µg/mL (≈ 148 µM)
- IC50 (Lu-65): 54 µg/mL (≈ 182 µM)
- IC50 (T-24): 8.8 µg/mL (≈ 29.6 µM)
- IC50 (KB): 7.5 µg/mL (≈ 25.2 µM)
- IC50 (SW480): 3.8 µg/mL (≈ 12.8 µM)
- IC50 (L1210 [2]): 0.7 µg/mL (≈ 2.35 µM)

Structure (SMILES): N#Cc1ncn(C2O[C@H](CO)[C@@H](O)[C@H]2O)c1C#CCO (some centres not stated)
- IC50 (L1210 [2]): 4.1 µg/mL (≈ 14.7 µM)

Structure (SMILES): NC(=O)c1ncn(C2O[C@H](CO)[C@@H](O)[C@H]2O)c1C#CCCO (some centres not stated)
- IC50 (OST): 51 µg/mL (≈ 164 µM)
- IC50 (HT-1080): > 100 µg/mL
- IC50 (PC-3): > 100 µg/mL
- IC50 (PC-13): 26 µg/mL (≈ 83.5 µM)
- IC50 (Lu-65): 15 µg/mL (≈ 48.2 µM)
- IC50 (PC-6): 12 µg/mL (≈ 38.5 µM)
- IC50 (T-24): 15 µg/mL (≈ 48.2 µM)
- IC50 (KB): 9.5 µg/mL (≈ 30.5 µM)
- IC50 (SW480): 6.2 µg/mL (≈ 19.9 µM)
- IC50 (L1210 [2]): 1.28 µg/mL (≈ 4.11 µM)

Structure (SMILES): CCCC#Cc1c(C#N)ncn1C1O[C@H](CO)[C@@H](O)[C@H]1O (some centres not stated)
- IC50 (L1210 [2]): 14.8 µg/mL (≈ 50.8 µM)

Structure (SMILES): CCCCC#Cc1c(C(N)=O)ncn1C1O[C@H](CO)[C@@H](O)[C@H]1O (some centres not stated)
- IC50 (L1210 [2]): 2.29 µg/mL (≈ 7.08 µM)

Structure (SMILES): N#Cc1ncn(C2O[C@H](CO)[C@@H](O)[C@H]2O)c1C#CCCO (some centres not stated)
- IC50 (L1210 [2]): 3.3 µg/mL (≈ 11.3 µM)

Structure (SMILES): NC(=O)c1ncn([C@@H]2O[C@H](CO)[C@@H](O)[C@H]2O)c1O [MIZORIBINE]
- IC50 (OST): > 100 µg/mL
- IC50 (HT-1080): > 100 µg/mL
- IC50 (PC-3): > 100 µg/mL
- IC50 (PC-13): > 100 µg/mL
- IC50 (Lu-65): > 100 µg/mL
- IC50 (PC-6): 49 µg/mL (≈ 189 µM)
- IC50 (T-24): > 100 µg/mL
- IC50 (KB): > 100 µg/mL
- IC50 (SW480): 42 µg/mL (≈ 162 µM)

Structure (SMILES): O=c1[nH]cc(F)c(=O)[nH]1 [FLUOROURACIL]
- IC50 (HOS): 0.79 µg/mL (≈ 6.07 µM)
- IC50 (COLO 205): 0.1 µg/mL (≈ 0.769 µM)
- IC50 (K562): 2.2 µg/mL (≈ 16.9 µM)
- IC50 (QG-90): 0.22 µg/mL (≈ 1.69 µM)
- IC50 (PANC-1): 0.22 µg/mL (≈ 1.69 µM)
- IC50 (KU-2 cell line): 0.28 µg/mL (≈ 2.15 µM)
- IC50 (Calu-1): > 3.3 µg/mL
- IC50 (SAOS-2): 0.78 µg/mL (≈ 6 µM)
- IC50 (HL-60): 1.33 µg/mL (≈ 10.2 µM)
- IC50 (G-292): > 3.3 µg/mL
- IC50 (U-937): 0.11 µg/mL (≈ 0.846 µM)
- IC50 (PC-8): 0.42 µg/mL (≈ 3.23 µM)
- IC50 (CCRF-CEM): 2.1 µg/mL (≈ 16.1 µM)
- IC50 (HT-1376): 0.58 µg/mL (≈ 4.46 µM)
- IC50 (RPMI-8226): 0.07 µg/mL (≈ 0.538 µM)
- IC50 (QG-56): 0.18 µg/mL (≈ 1.38 µM)

Structure (SMILES): C=Cc1c(C(N)=O)ncn1C1O[C@H](CO)[C@@H](O)[C@H]1O (some centres not stated)
- inhibition at 100 µg/mL (L1210 [1]): 0.4%

Structure (SMILES): NC(=O)c1ncn(C2O[C@H](CO)[C@@H](O)[C@H]2O)c1C#CC1CCCCC1 (some centres not stated)
- inhibition at 100 µg/mL (L1210 [1]): 18.9%

Structure (SMILES): C#Cc1c(C(N)=O)ncn1[C@@H]1O[C@H](CO)[C@@H](O)[C@H]1O
- IC50 (HOS): 0.28 µg/mL (≈ 1.05 µM)
- IC50 (COLO 205): 0.11 µg/mL (≈ 0.412 µM)
- IC50 (K562): 0.17 µg/mL (≈ 0.636 µM)
- IC50 (QG-90): 0.23 µg/mL (≈ 0.861 µM)
- IC50 (OST): 28 µg/mL (≈ 105 µM)
- IC50 (HT-1080): 3 µg/mL (≈ 11.2 µM)
- IC50 (PANC-1): 0.16 µg/mL (≈ 0.599 µM)
- IC50 (KU-2 cell line): < 0.1 µg/mL
- IC50 (Calu-1): 0.21 µg/mL (≈ 0.786 µM)
- IC50 (SAOS-2): 4.23 µg/mL (≈ 15.8 µM)
- IC50 (HL-60): 0.23 µg/mL (≈ 0.861 µM)
- IC50 (G-292): 2.55 µg/mL (≈ 9.54 µM)
- IC50 (U-937): 0.11 µg/mL (≈ 0.412 µM)
- IC50 (PC-8): 0.54 µg/mL (≈ 2.02 µM)
- IC50 (CCRF-CEM): 1.03 µg/mL (≈ 3.85 µM)
- IC50 (HT-1376): 0.14 µg/mL (≈ 0.524 µM)
- IC50 (RPMI-8226): 0.44 µg/mL (≈ 1.65 µM)
- IC50 (PC-3): 96 µg/mL (≈ 359 µM)
- IC50 (PC-13): 86 µg/mL (≈ 322 µM)
- IC50 (Lu-65): 3.8 µg/mL (≈ 14.2 µM)
- IC50 (PC-6): 0.46 µg/mL (≈ 1.72 µM)
- IC50 (T-24): 0.88 µg/mL (≈ 3.29 µM)
- IC50 (KB): 12 µg/mL (≈ 44.9 µM)
- IC50 (QG-56): 0.18 µg/mL (≈ 0.674 µM)
- IC50 (SW480): 3.3 µg/mL (≈ 12.3 µM)
- IC50 (L1210 [2]): 0.18 µg/mL (≈ 0.674 µM)

Source: ChEMBL document CHEMBL1125841, “Nucleosides and nucleotides. 96. Synthesis and antitumor activity of 5-ethynyl-1-beta-D-ribofuranosylimidazole-4-carboxamide (EICAR) and its derivatives” (J Med Chem, 1991)
